# Laboratory results: patent publication US11697648B2, “Fused pyrimidine pyridinone compounds as JAK inhibitors” (THERAVANCE BIOPHARMA R&D IP, LLC, priority 2019, dated 2023)
# Tests used:
# JAK3 = JAK3 (Homo sapiens (Human), UniProt P52333); assay: Biochemical JAK3 kinase assay (LanthaScreen)
# In short: (§1)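 GST-JAK + GFP-STAT1 peptide, HEPES pH 7.5/MgCl2/EGTA/Brij-35 buffer; cpd preincubation 1 h RT; ATP start, 1 h RT; stop with 10 mM EDTA + 2 nM Tb-anti-pSTAT1; TR-FRET 520/495. 4-parameter IC50 → pKi (Cheng-Prusoff).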
# JAK1 = JAK1 (Homo sapiens (Human), UniProt P23458); assay: Biochemical JAK1 kinase assay (LanthaScreen)
# In short: as §1
# Tyk2 = Tyk2 (Homo sapiens (Human), UniProt P29597); assay: Biochemical Tyk2 kinase assay (LanthaScreen)
# In short: as §1
# JAK2 = JAK2 (Homo sapiens (Human), UniProt O60674); assay: Biochemical JAK2 kinase assay (LanthaScreen)
# In short: as §1
# [1] = tested on: IL-2 stimulated STAT5 phosphorylation in Tall-1 human T cell line (JAK3); assay: Cellular JAK3 potency assay: inhibition of IL-2 stimulated pSTAT5 in Tall-1 T cells; assay type: cell-based
# In short: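 Tall-1 cells, 45,000 per well, preincubated 1 hour with compound at 37 °C, then stimulated 30 minutes with IL-2 at 300 ng/ml final. pSTAT5 (Tyr694/699) in lysates quantified by AlphaLISA SureFire Ultra. pIC50 derived from inhibition curves, given as mean with SD.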
# [2] = selectivity JAK3 over JAK1, difference of pKi
# [3] = IL-2 stimulated pSTAT5, Tall-1 T cells
# [4] = selectivity, difference of pKi values
# [5] = IL-2 stimulated pSTAT5 in Tall-1 T cells
# Chain of JAK3 (P52333 whole entry): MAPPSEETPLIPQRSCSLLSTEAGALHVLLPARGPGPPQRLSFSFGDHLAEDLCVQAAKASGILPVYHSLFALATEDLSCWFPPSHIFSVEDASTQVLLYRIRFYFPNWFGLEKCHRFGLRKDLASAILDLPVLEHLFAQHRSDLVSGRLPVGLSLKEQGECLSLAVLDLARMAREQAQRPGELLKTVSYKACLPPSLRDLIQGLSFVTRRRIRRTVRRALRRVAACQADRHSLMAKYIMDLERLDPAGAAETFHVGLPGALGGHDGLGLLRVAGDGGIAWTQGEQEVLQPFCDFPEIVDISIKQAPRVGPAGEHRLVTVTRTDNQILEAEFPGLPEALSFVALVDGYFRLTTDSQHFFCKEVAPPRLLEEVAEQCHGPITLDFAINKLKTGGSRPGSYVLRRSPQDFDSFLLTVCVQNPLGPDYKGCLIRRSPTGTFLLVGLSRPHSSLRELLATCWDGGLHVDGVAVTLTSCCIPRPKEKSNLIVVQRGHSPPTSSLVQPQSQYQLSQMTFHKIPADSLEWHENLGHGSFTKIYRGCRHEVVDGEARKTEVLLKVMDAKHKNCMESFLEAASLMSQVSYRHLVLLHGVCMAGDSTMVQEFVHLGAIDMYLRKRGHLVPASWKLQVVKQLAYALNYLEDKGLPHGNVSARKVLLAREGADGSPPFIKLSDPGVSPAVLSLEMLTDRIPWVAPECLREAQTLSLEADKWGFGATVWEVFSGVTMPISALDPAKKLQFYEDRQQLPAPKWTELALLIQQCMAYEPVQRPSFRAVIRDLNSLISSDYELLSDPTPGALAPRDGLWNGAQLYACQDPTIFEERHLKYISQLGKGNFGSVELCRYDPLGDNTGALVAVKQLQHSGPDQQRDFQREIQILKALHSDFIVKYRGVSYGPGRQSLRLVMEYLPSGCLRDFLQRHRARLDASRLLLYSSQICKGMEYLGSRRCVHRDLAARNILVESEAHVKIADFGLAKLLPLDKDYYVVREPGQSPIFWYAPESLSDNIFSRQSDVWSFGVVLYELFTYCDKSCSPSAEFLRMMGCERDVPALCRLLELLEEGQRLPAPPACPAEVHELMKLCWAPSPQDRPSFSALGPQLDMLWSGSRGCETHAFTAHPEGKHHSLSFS
# Chain of Tyk2 (P29597 whole entry): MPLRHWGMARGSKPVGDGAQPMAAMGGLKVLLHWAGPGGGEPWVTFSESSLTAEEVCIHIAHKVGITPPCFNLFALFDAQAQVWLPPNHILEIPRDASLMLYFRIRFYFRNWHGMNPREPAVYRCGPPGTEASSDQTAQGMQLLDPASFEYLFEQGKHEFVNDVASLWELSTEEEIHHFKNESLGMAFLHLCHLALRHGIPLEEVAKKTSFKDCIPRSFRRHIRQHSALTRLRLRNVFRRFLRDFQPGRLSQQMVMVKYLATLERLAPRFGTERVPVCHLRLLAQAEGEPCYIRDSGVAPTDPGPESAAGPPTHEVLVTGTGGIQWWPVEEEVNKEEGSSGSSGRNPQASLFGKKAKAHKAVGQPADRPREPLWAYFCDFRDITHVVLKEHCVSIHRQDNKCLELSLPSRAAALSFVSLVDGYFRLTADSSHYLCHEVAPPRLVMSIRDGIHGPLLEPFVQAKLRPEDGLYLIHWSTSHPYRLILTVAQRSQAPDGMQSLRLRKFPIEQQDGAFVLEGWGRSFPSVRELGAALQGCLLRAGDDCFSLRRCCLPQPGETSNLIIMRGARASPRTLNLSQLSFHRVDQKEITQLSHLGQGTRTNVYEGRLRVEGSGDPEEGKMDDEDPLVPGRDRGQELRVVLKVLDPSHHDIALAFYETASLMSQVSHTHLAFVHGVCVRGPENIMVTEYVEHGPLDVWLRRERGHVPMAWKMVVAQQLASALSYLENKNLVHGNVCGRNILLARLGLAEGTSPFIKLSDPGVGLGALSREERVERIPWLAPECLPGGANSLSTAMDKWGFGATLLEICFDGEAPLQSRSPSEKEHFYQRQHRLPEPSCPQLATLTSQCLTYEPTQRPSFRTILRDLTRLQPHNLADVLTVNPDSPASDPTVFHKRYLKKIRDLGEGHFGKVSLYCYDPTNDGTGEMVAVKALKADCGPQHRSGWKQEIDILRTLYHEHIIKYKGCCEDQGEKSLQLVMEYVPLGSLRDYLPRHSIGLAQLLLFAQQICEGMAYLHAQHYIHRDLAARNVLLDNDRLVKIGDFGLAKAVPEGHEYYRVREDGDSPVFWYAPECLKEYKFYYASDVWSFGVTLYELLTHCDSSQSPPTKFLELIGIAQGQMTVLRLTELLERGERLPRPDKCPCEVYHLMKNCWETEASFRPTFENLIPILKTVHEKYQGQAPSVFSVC
# Chain of JAK2 (O60674 whole entry): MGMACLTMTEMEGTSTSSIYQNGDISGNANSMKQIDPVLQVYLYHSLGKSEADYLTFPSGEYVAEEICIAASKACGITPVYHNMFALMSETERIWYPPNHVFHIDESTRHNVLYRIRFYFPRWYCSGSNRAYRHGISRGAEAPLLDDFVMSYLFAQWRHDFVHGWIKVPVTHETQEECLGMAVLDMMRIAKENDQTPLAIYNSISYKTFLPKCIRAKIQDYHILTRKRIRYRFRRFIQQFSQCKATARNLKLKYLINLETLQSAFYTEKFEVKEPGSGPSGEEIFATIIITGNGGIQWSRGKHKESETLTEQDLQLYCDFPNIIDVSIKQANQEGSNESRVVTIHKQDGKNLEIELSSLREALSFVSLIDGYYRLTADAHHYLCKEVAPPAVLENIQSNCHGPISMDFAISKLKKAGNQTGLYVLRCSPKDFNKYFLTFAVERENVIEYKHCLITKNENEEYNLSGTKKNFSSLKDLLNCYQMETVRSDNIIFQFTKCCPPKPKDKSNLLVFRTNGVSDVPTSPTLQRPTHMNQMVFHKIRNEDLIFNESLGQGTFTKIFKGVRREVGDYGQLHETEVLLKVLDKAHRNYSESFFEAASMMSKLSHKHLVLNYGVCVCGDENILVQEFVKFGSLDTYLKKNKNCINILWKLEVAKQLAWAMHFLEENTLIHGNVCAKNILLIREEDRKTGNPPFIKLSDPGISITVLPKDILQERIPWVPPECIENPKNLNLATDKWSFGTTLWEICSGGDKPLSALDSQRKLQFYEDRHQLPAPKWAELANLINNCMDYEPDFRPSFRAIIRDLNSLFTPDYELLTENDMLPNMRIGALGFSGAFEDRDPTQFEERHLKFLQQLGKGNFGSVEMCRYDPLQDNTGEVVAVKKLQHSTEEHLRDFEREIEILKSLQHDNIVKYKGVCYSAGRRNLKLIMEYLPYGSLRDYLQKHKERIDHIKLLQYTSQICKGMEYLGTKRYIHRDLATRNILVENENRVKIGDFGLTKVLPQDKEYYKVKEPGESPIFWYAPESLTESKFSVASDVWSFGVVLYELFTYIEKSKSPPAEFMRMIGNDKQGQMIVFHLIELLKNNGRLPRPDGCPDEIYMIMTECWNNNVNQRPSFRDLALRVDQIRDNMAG
# Chain of JAK1 (P23458 whole entry): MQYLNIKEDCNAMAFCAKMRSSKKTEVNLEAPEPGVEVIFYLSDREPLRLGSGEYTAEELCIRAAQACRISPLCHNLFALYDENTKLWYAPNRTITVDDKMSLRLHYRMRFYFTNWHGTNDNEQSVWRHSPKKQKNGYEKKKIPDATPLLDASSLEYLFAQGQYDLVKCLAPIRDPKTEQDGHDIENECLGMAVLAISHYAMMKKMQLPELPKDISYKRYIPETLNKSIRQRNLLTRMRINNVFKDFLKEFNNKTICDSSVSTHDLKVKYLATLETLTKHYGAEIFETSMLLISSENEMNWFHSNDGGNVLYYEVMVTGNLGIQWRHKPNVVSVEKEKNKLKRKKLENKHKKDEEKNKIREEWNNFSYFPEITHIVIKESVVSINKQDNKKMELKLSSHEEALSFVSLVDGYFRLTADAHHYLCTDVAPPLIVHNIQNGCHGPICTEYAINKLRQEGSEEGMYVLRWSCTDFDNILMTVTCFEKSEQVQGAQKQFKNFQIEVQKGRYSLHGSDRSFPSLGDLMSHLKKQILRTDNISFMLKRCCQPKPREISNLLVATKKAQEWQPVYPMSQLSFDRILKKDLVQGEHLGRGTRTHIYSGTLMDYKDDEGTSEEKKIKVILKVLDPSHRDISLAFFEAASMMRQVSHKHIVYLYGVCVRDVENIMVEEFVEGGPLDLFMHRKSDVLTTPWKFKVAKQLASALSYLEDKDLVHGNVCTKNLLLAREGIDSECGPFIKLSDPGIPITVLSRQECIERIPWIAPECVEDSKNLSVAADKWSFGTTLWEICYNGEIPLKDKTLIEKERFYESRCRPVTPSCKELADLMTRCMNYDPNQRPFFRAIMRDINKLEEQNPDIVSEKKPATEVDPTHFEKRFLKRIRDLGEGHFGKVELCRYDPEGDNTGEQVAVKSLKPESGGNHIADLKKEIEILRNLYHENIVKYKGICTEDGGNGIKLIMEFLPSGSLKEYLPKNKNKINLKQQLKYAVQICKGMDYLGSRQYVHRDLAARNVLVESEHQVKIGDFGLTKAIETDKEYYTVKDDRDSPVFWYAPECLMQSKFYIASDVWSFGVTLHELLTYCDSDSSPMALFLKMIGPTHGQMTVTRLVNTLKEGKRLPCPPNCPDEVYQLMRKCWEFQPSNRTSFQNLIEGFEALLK
compound,measurement,setting,value
C=CC(=O)N1CCN(CCn2c(=O)ccc3cnc(Nc4cnn(CCOCC)c4)nc32)[C@@H](C)C1 [Example 229],JAK 3 (pKi),JAK3,B (B represents pKi value between 9 and 10 (Ki between 1 nM and 0.1 nM))
same,JAK3 (pKi)-JAK1 (pKi),JAK3; [2],A (A represents a value of 3 or above)
same,JAK 1 (pKi),JAK1,E (E represents a pKi value of 7 or below (Ki of 100 nM or above))
same,Tyk 2 (pKi),Tyk2,E (E represents a pKi value of 7 or below (Ki of 100 nM or above))
same,JAK 2 (pKi),JAK2,E (E represents a pKi value of 7 or below (Ki of 100 nM or above))
same,Tall-1 (pIC50),[1]; [3],B (B represents a pC50 value between 6.7 (included) and 7.5 (IC50 between 200 nM and 32 nM))
C=CC(=O)N1CCN(CCn2c(=O)ccc3cnc(Nc4cnn(CCOC(C)C)c4)nc32)[C@@H](C)C1 [Example 230],JAK 3 (pKi),JAK3,B (B represents pKi value between 9 and 10 (Ki between 1 nM and 0.1 nM))
same,JAK3 (pKi)-JAK1 (pKi),JAK3; [2],A (A represents a value of 3 or above)
same,JAK 1 (pKi),JAK1,E (E represents a pKi value of 7 or below (Ki of 100 nM or above))
same,Tyk 2 (pKi),Tyk2,E (E represents a pKi value of 7 or below (Ki of 100 nM or above))
same,JAK 2 (pKi),JAK2,E (E represents a pKi value of 7 or below (Ki of 100 nM or above))
same,Tall-1 (pIC50),[1]; [3],B (B represents a pC50 value between 6.7 (included) and 7.5 (IC50 between 200 nM and 32 nM))
C=CC(=O)N1CCN(CCn2c(=O)ccc3cnc(Nc4cnn(C5CCN(C)CC5)c4)nc32)[C@@H](C)C1 [Example 231],JAK 3 (pKi),JAK3,B (B represents pKi value between 9 and 10 (Ki between 1 nM and 0.1 nM))
same,JAK3 (pKi)-JAK1 (pKi),JAK3; [2],A (A represents a value of 3 or above)
same,JAK 1 (pKi),JAK1,E (E represents a pKi value of 7 or below (Ki of 100 nM or above))
same,Tyk 2 (pKi),Tyk2,E (E represents a pKi value of 7 or below (Ki of 100 nM or above))
same,JAK 2 (pKi),JAK2,E (E represents a pKi value of 7 or below (Ki of 100 nM or above))
same,Tall-1 (pIC50),[1]; [3],B (B represents a pC50 value between 6.7 (included) and 7.5 (IC50 between 200 nM and 32 nM))
C=CC(=O)N1CCN(CCn2c(=O)ccc3cnc(Nc4cnn(CC(F)F)c4)nc32)[C@@H](C)C1 [Example 232],JAK 3 (pKi),JAK3,A (A represents a pKi value≥10 (Ki≤0.1 nM))
same,JAK3 (pKi)-JAK1 (pKi),JAK3; [2],A (A represents a value of 3 or above)
same,JAK 1 (pKi),JAK1,E (E represents a pKi value of 7 or below (Ki of 100 nM or above))
same,Tyk 2 (pKi),Tyk2,E (E represents a pKi value of 7 or below (Ki of 100 nM or above))
same,JAK 2 (pKi),JAK2,E (E represents a pKi value of 7 or below (Ki of 100 nM or above))
same,Tall-1 (pIC50),[1]; [3],B (B represents a pC50 value between 6.7 (included) and 7.5 (IC50 between 200 nM and 32 nM))
C=CC(=O)N1CCN(CCn2c(=O)ccc3cnc(Nc4cnn(C(C)(C)COC)c4)nc32)[C@@H](C)C1 [Example 233],JAK 3 (pKi),JAK3,B (B represents pKi value between 9 and 10 (Ki between 1 nM and 0.1 nM))
same,JAK3 (pKi)-JAK1 (pKi),JAK3; [2],A (A represents a value of 3 or above)
same,JAK 1 (pKi),JAK1,E (E represents a pKi value of 7 or below (Ki of 100 nM or above))
same,Tyk 2 (pKi),Tyk2,E (E represents a pKi value of 7 or below (Ki of 100 nM or above))
same,JAK 2 (pKi),JAK2,E (E represents a pKi value of 7 or below (Ki of 100 nM or above))
same,Tall-1 (pIC50),[1]; [3],B (B represents a pC50 value between 6.7 (included) and 7.5 (IC50 between 200 nM and 32 nM))
C=CC(=O)N1CC(C(C)Cn2c(=O)ccc3cnc(Nc4ccc(N5CCN(C)CC5)cc4)nc32)C1 (stereo not drawn) [Example 234],JAK 3 (pKi),JAK3,B (B represents pKi value between 9 and 10 (Ki between 1 nM and 0.1 nM))
same,JAK3 (pKi)-JAK1 (pKi),JAK3; [2],A (A represents a value of 3 or above)
same,JAK 1 (pKi),JAK1,E (E represents a pKi value of 7 or below (Ki of 100 nM or above))
same,Tyk 2 (pKi),Tyk2,E (E represents a pKi value of 7 or below (Ki of 100 nM or above))
same,JAK 2 (pKi),JAK2,E (E represents a pKi value of 7 or below (Ki of 100 nM or above))
same,Tall-1 (pIC50),[1]; [3],B (B represents a pC50 value between 6.7 (included) and 7.5 (IC50 between 200 nM and 32 nM))
C=CC(=O)N1CCN(CCn2c(=O)ccc3cnc(Nc4cnn(-c5ccccc5)c4)nc32)[C@@H](C)C1 [Example 235],JAK 3 (pKi),JAK3,B (B represents pKi value between 9 and 10 (Ki between 1 nM and 0.1 nM))
same,JAK3 (pKi)-JAK1 (pKi),JAK3; [2],A (A represents a value of 3 or above)
same,JAK 1 (pKi),JAK1,E (E represents a pKi value of 7 or below (Ki of 100 nM or above))
same,Tyk 2 (pKi),Tyk2,E (E represents a pKi value of 7 or below (Ki of 100 nM or above))
same,JAK 2 (pKi),JAK2,E (E represents a pKi value of 7 or below (Ki of 100 nM or above))
same,Tall-1 (pIC50),[1]; [3],B (B represents a pC50 value between 6.7 (included) and 7.5 (IC50 between 200 nM and 32 nM))
C=CC(=O)N1CCN(CCn2c(=O)ccc3cnc(Nc4cnn(CCF)c4)nc32)[C@@H](C)C1 [Example 236],JAK 3 (pKi),JAK3,B (B represents pKi value between 9 and 10 (Ki between 1 nM and 0.1 nM))
same,JAK3 (pKi)-JAK1 (pKi),JAK3; [2],A (A represents a value of 3 or above)
same,JAK 1 (pKi),JAK1,E (E represents a pKi value of 7 or below (Ki of 100 nM or above))
same,Tyk 2 (pKi),Tyk2,E (E represents a pKi value of 7 or below (Ki of 100 nM or above))
same,JAK 2 (pKi),JAK2,E (E represents a pKi value of 7 or below (Ki of 100 nM or above))
same,Tall-1 (pIC50),[1]; [3],B (B represents a pC50 value between 6.7 (included) and 7.5 (IC50 between 200 nM and 32 nM))
C=CC(=O)N1CCN(CCn2c(=O)ccc3cnc(Nc4cnn(Cc5ccccc5)c4)nc32)[C@@H](C)C1 [Example 237],JAK 3 (pKi),JAK3,B (B represents pKi value between 9 and 10 (Ki between 1 nM and 0.1 nM))
same,JAK3 (pKi)-JAK1 (pKi),JAK3; [4],A (A represents a value of 3 or above)
same,JAK 1 (pKi),JAK1,E (E represents a pKi value of 7 or below (Ki of 100 nM or above))
same,Tyk 2 (pKi),Tyk2,E (E represents a pKi value of 7 or below (Ki of 100 nM or above))
same,JAK 2 (pKi),JAK2,E (E represents a pKi value of 7 or below (Ki of 100 nM or above))
same,Tall-1 (pIC50),[1]; [5],B (B represents a pC50 value between 6.7 (included) and 7.5 (IC50 between 200 nM and 32 nM))
C=CC(=O)N1CCN(CCn2c(=O)ccc3cnc(Nc4cnn(CCOC(F)F)c4)nc32)[C@@H](C)C1 [Example 238],JAK 3 (pKi),JAK3,B (B represents pKi value between 9 and 10 (Ki between 1 nM and 0.1 nM))
same,JAK3 (pKi)-JAK1 (pKi),JAK3; [4],A (A represents a value of 3 or above)
same,JAK 1 (pKi),JAK1,E (E represents a pKi value of 7 or below (Ki of 100 nM or above))
same,Tyk 2 (pKi),Tyk2,E (E represents a pKi value of 7 or below (Ki of 100 nM or above))
same,JAK 2 (pKi),JAK2,E (E represents a pKi value of 7 or below (Ki of 100 nM or above))
same,Tall-1 (pIC50),[1]; [5],C (C represents a pIC50 value between 6 and 6.7 (IC50 between 1 μM and 200 nM))
C=CC(=O)N1CC(CCn2c(=O)ccc3cnc(Nc4cnn(Cc5ccccc5)c4)nc32)C1 [Example 239],JAK 3 (pKi),JAK3,B (B represents pKi value between 9 and 10 (Ki between 1 nM and 0.1 nM))
same,JAK3 (pKi)-JAK1 (pKi),JAK3; [4],A (A represents a value of 3 or above)
same,JAK 1 (pKi),JAK1,E (E represents a pKi value of 7 or below (Ki of 100 nM or above))
same,Tyk 2 (pKi),Tyk2,E (E represents a pKi value of 7 or below (Ki of 100 nM or above))
same,JAK 2 (pKi),JAK2,E (E represents a pKi value of 7 or below (Ki of 100 nM or above))
same,Tall-1 (pIC50),[1]; [5],B (B represents a pC50 value between 6.7 (included) and 7.5 (IC50 between 200 nM and 32 nM))
C=CC(=O)N1CC(CCn2c(=O)ccc3cnc(Nc4ccc(N5CCN(C)C(C)(C)C5)cc4)nc32)C1 [Example 240],JAK 3 (pKi),JAK3,A (A represents a pKi value≥10 (Ki≤0.1 nM))
same,JAK3 (pKi)-JAK1 (pKi),JAK3; [4],A (A represents a value of 3 or above)
same,JAK 1 (pKi),JAK1,E (E represents a pKi value of 7 or below (Ki of 100 nM or above))
same,Tyk 2 (pKi),Tyk2,E (E represents a pKi value of 7 or below (Ki of 100 nM or above))
same,JAK 2 (pKi),JAK2,E (E represents a pKi value of 7 or below (Ki of 100 nM or above))
same,Tall-1 (pIC50),[1]; [5],A (A represents a pIC50 value≥7.5 (IC50≤32 nM))
C=CC(=O)N1CC(CCn2c(=O)ccc3cnc(Nc4cnn(CC)c4)nc32)C1 [Example 241],JAK 3 (pKi),JAK3,B (B represents pKi value between 9 and 10 (Ki between 1 nM and 0.1 nM))
same,JAK3 (pKi)-JAK1 (pKi),JAK3; [4],A (A represents a value of 3 or above)
same,JAK 1 (pKi),JAK1,E (E represents a pKi value of 7 or below (Ki of 100 nM or above))
same,Tyk 2 (pKi),Tyk2,E (E represents a pKi value of 7 or below (Ki of 100 nM or above))
same,JAK 2 (pKi),JAK2,E (E represents a pKi value of 7 or below (Ki of 100 nM or above))
same,Tall-1 (pIC50),[1]; [5],B (B represents a pC50 value between 6.7 (included) and 7.5 (IC50 between 200 nM and 32 nM))
